The values that follow are results of earlier work, collected in US8414913B2, “Edible compositions for lowering cholesterol” (Raisio Benecol Oy, priority 2001, dated 2013).

The series has as its system total and low density lipoprotein (LDL) cholesterol level. The conditions noted are these: diets with high β-glucan content; Ripsin et al. 1992, Braaten et al. 1994.

β-glucan: the “lowering of total and LDL cholesterol level” value is reported as 8-12%.
